Key:
[1] = Citric acid concentration in patient blood plasma during dialysis with citric acid-containing dialysate; assay type: in vivo, human; details: 1.7 mEq/L of citric acid added to a dialysate during a dialysis treatment
Procedure: The present invention provides a dialysate comprising aluminum complexing agents. Preferably, the aluminum complexing agent is citric acid. […] Meanwhile, it had been confirmed that, when 1.7 mEq/L of citric acid had been added to a dialysate during a dialysis treatment, the citric acid concentration in the patient blood plasma had risen by about 3 mg/dL. In the following examples, how this phenomenon effects on the aluminum kinetics in vivo was examined.

[2] = Protein-binding rate of aluminum in rat plasma by ultrafiltration, with citric acid added; assay type: in vitro ADME; details: aluminum 50 μg/L, citric acid final concentration raised by 3 mg/dL, 37° C. 60 minutes, no citric acid: 23.4±10.0%
Procedure: Whether aluminum combined to proteins chelates with citric acid and is dissociated from the proteins in rat plasma was examined.
A used indicator was the protein-binding rates (by ultrafiltration method) when citric acid was added and when not added.
Aluminum was added to rat blood plasma to make the concentration 50 μg/L, and citric acid was added there to make the final concentration rise by 3 mg/dL. Then, it was incubated at 37° C. for 60 minutes. After that, the solution was centrifuged in a centrifuge (Centrifree) to obtain about 100 μL of filtrate. The aluminum concentrations of the added sample, the supernatant and the filtrate were measured respectively by the HPLC method (Chromatoracer Al; SHINO-TEST Corp.) to calculate the protein-binding rates.

[3] = Elimination of aluminum accumulated in rat thigh bones by repeated intravenous citric acid; assay type: in vivo; details: aluminum-loaded male rats, 0.75% citric acid solution i.v. 4 hours, three times a week for 4 weeks
Procedure: After aluminum accumulations were made in rat tissues, citric acid as an aluminum complexing agent was administered intravenously repeatedly to examine whether citric acid would eliminate the aluminum accumulated in the tissues.
Aluminum was administered to male rats intraperitoneally repeatedly once a day for 6 weeks at 2 mg/kg. Then, the rats were cannulated in the jugular vein.
From the jugular cannula, 0.75% citric acid solution was administered repeatedly taking the same dialysis time and frequency as in human; that is, for 4 hours continuously intravenously three times a week for 4 weeks.
For the control group, physiological saline was administered in the same means. Each group had 4 to 6 rats.
After the 4-week administration, thigh bones were collected from the rats to compare the aluminum levels in the thigh bones of both groups using the ratios of the aluminum peak area analyzed by the HPLC method against the peak area of internal standard substance as an indicator.

rise of citric acid concentration in patient blood plasma [1]: about 3 mg/dL
free-aluminum percentage [2]: 35.5±0.4%
Structure (SMILES): O=C(O)CC(O)(CC(=O)O)C(=O)O [citric acid]
thighbone aluminum levels compared with control group ([3]; P<0.05 Student's t-test): statistically significantly lower
thigh bone aluminum level: ratio of aluminum peak area (HPLC) against peak area of internal standard ([3]; saline control 4.46±0.52, mean±S.D.): 3.62±0.27

Reference: patent US20090023806A1, “ALUMINUM-STORAGE DISEASE IMPROVING AGENT” (AJINOMOTO CO. INC, priority 2006, published 2009)
